The target in assay [1] is T1, E3 ubiquitin-protein ligase XIAP (Homo sapiens, UniProt P98170). Kind of assay: XIAP antagonists, biochemical, IAP family, fluorescence polarization (AID 1018). Format: functional.
In assay [2] the target is T1, E3 ubiquitin-protein ligase XIAP. Kind of assay: Counter Screen using XIAP-Bir3 for Chemical Antagonists of Bir1/2 domains of IAP-family anti-apoptotic proteins. [Related pubchem assays (depositor defined):AID1018, AID1449, AID1514, AID1638, AID1749, AID1750, AID488957, AID488963]. In general terms: Counterscreens check selectivity or assay interference.
The target of assay [3] is T2, G-protein coupled receptor 35 (Homo sapiens, UniProt Q9HC97). Kind of assay: SAR analysis of Antagonists of the GPR35 Receptor using an Image-Based Assay - Set 3. [Related pubchem assays (depositor defined):AID2013, AID2026]. In kind it is functional.
Assay [4] concerns the target T2, G-protein coupled receptor 35. Kind of assay: SAR analysis of Agonists of the GPR35 Receptor using an Image-Based Assay - Set 2. [Related pubchem assays (depositor defined):AID2013, AID2026]. In kind it is functional.
The target of assay [5] is T3, Cannabinoid receptor 2 (Homo sapiens, UniProt P34972). Kind of assay: SAR analysis of antagonists of the Cannabinoid Receptor 2 using an Image-Based Assay. [Related pubchem assays (depositor defined):AID2013, AID2026]. Format: functional.
Assay [6] addresses T4, Cannabinoid receptor 1 (Homo sapiens, UniProt P21554). The assay can be described thus: SAR analysis of antagonists of the Cannabinoid Receptor 1 using an Image-Based Assay - Set 2. [Related pubchem assays (depositor defined):AID2013, AID2026]. Format: functional.
In assay [7] the target is T5, G-protein coupled receptor 55 (Homo sapiens, UniProt Q9Y2T6). The assay can be described thus: GPR55 antagonists blocking LPI-driven arrestin recruitment, primary screen, imaging, U2OS, beta-arrestin-GFP, LPI agonist (AID 2013).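 Note: antagonist potency measured as reduced agonist-driven arrestin aggregation.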 In kind it is functional. In general terms: Arrestin recruitment assays detect the binding of arrestin to an activated receptor.
The target of assay [8] is T4, Cannabinoid receptor 1. The assay can be described thus: SAR analysis of agonists of the Cannabinoid Receptor 1 using an Image-Based Assay - Set 2. [Related pubchem assays (depositor defined):AID2013, AID2026]. Format: functional.
For assay [9], the target named is T3, Cannabinoid receptor 2. Kind of assay: SAR analysis of agonists of the Cannabinoid Receptor 2 using an Image-Based Assay. [Related pubchem assays (depositor defined):AID2013, AID2026]. In kind it is functional.
The target of assay [10] is T5, G-protein coupled receptor 55. Kind of assay: GPR55 antagonist potency of analogs, SAR follow-up, imaging, U2OS, beta-arrestin-GFP, LPI agonist, set 2 (AID 2820). Format: functional.
Assay [11] has as its target T6, Coagulation factor XII (Homo sapiens, UniProt P00748).
T6 sequence (P00748 whole entry): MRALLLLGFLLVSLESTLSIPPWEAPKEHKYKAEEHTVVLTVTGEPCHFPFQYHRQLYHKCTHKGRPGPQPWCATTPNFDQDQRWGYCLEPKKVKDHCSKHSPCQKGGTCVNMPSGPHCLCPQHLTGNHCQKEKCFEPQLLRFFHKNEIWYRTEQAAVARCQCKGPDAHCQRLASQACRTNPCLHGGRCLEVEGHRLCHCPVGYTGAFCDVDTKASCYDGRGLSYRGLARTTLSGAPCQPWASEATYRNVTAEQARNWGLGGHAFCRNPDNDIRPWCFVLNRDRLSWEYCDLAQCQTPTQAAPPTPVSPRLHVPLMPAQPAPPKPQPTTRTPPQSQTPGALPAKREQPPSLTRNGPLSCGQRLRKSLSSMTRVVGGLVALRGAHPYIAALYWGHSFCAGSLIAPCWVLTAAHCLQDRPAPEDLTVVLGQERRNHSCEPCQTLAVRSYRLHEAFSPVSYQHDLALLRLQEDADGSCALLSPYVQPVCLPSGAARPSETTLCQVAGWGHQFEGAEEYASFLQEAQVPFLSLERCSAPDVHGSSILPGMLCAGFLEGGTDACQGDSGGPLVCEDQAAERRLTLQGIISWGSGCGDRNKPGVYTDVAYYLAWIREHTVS
Kind of assay: Factor XIIa Dose Response Confirmation from Single Well HTS. [Related pubchem assays (depositor defined):AID701]. In kind it is functional.

In assay [12] the target is T6, Coagulation factor XII. The assay can be described thus: FXIIa inhibitor potency, concentration-response, biochemical (AID 716). In kind it is functional.
The target of assay [13] is T7, Ubiquitin-conjugating enzyme E2 N (Homo sapiens, UniProt P61088).
T7 sequence (P61088 whole entry): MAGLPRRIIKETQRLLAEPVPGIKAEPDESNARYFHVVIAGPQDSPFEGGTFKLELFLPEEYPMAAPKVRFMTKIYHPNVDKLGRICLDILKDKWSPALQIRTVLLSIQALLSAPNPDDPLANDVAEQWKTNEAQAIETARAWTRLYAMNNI
Format: functional.

Another assay has as its target T8, Bcl-2-related protein A1 (Mus musculus, UniProt Q07440).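 Note: confirmatory dose–response counterscreen on Bfl-1, used to check hits from a UBC13 polyubiquitin inhibitor campaign.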
T8 sequence (Q07440 whole entry): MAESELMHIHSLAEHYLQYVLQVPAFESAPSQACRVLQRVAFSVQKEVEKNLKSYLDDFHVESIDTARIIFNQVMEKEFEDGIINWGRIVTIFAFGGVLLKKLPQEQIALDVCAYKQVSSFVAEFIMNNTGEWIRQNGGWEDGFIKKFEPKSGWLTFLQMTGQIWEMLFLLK
Format: functional.

Assay [14] concerns the target T7, Ubiquitin-conjugating enzyme E2 N. Format: functional. This is another data set of the same source.
In the next assay the target is Nonstructural protein 1 (Influenza A virus, UniProt Q194T2). In kind it is functional, Influenza A virus (A/California/07/2009(H1N1)).
The target of assay [15] is T9, Rac GTPase-activating protein 1 (Homo sapiens, UniProt Q9H0H5).
T9 sequence (Q9H0H5 whole entry): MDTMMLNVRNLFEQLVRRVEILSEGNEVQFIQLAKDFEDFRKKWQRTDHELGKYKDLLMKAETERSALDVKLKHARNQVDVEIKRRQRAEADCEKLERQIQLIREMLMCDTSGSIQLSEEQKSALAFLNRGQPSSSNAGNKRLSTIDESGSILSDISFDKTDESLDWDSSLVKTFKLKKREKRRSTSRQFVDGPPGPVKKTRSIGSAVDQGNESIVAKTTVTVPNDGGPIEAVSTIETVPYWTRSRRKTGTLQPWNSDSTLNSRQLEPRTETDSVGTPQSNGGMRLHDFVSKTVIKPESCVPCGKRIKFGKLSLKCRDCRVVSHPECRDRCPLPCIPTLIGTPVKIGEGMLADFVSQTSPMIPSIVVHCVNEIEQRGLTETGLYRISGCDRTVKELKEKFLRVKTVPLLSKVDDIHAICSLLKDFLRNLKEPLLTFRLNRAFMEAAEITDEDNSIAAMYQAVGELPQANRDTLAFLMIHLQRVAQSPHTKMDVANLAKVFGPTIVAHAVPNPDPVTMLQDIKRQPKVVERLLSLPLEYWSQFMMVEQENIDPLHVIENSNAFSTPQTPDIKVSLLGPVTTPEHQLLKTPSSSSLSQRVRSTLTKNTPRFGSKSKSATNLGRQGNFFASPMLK
The assay can be described thus: MgcRacGAP GTPase-activating activity inhibitors, confirmation, biochemical, ADP Hunter fluorescence, primary and confirmatory (AID 624330). Format: functional.

In another assay the target is T10, Hexokinase-1 (Homo sapiens, UniProt P19367).
T10 sequence (P19367 whole entry): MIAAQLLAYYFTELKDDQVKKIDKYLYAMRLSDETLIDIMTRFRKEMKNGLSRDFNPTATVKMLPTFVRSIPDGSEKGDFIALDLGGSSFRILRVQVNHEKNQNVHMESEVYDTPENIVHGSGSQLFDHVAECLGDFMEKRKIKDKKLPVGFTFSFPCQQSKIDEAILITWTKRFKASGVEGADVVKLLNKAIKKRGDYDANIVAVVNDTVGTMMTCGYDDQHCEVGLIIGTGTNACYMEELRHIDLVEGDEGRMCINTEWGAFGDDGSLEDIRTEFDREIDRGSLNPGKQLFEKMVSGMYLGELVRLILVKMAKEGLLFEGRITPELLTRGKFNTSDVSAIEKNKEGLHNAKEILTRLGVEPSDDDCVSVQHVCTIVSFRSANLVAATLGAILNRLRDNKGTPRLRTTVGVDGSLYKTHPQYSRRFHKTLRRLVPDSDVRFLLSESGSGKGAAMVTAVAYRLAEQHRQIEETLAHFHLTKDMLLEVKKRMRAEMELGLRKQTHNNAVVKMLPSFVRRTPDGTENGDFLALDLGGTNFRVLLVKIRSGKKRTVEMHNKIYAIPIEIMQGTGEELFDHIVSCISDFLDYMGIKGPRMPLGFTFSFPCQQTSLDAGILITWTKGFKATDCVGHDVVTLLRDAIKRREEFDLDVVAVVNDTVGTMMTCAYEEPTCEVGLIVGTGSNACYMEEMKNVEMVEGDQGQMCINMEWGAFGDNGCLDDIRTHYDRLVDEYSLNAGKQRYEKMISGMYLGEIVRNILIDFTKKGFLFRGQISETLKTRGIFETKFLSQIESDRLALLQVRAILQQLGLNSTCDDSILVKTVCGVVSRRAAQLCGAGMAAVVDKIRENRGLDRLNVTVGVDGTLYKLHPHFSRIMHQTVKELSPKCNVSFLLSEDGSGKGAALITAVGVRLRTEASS
Kind of assay: hexokinase 1 activators, dose response, selectivity assay for HKDC1 activator project, biochemical (AID 504762). Format: functional.

In the next assay the target is T11, Hexokinase HKDC1 (Homo sapiens, UniProt Q2TB90).
T11 sequence (Q2TB90 whole entry): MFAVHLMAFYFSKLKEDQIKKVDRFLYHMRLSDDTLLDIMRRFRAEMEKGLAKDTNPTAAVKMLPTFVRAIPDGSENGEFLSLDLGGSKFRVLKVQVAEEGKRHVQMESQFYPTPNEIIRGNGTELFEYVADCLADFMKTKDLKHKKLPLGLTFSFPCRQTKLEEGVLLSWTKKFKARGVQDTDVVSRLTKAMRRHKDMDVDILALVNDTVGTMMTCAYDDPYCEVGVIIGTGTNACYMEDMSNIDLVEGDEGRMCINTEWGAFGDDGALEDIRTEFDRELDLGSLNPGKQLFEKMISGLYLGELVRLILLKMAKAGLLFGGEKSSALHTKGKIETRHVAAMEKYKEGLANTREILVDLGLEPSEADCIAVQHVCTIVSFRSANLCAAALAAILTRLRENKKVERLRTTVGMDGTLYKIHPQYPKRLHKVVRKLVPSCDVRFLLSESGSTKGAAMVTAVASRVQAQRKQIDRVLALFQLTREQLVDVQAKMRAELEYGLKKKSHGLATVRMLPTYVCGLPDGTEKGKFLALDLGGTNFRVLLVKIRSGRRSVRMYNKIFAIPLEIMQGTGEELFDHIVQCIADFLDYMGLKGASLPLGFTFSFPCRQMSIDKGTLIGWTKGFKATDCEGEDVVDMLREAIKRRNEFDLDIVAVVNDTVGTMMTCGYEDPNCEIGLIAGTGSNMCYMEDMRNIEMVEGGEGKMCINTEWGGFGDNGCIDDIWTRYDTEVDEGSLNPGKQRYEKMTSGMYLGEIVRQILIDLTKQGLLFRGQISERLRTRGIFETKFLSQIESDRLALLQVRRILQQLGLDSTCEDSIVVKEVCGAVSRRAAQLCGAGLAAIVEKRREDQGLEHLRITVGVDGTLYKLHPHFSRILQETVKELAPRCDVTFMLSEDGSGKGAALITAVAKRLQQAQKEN
Kind of assay: HKDC1 hexokinase inhibitors, dose response, biochemical, W721R variant (AID 504729). Format: functional.

Activity calls are given as the source filed them.

Broadly, the IC50 is the concentration that inhibits the measured activity by half. By EC50 is commonly meant the concentration at which the effect is half-maximal.

T2 sequence (Q9HC97 whole entry): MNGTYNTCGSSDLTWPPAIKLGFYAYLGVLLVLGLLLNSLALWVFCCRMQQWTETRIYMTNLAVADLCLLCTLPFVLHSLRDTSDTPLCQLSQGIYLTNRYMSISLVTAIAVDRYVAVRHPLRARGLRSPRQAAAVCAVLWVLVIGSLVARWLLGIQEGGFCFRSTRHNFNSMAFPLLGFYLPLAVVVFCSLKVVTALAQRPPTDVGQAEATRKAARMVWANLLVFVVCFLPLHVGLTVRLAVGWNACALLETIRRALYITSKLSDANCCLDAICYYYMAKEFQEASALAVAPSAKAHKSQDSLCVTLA
T3 sequence (P34972 whole entry): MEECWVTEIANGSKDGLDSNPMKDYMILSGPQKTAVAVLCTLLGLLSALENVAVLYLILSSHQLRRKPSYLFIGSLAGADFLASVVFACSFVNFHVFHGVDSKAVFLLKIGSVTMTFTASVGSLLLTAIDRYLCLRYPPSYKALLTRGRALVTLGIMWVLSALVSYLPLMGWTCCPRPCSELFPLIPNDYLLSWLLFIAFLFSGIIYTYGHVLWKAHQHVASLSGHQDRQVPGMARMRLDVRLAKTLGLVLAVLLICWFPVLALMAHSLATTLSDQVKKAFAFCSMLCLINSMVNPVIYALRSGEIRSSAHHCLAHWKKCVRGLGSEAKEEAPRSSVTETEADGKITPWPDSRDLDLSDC
T5 sequence (Q9Y2T6 whole entry): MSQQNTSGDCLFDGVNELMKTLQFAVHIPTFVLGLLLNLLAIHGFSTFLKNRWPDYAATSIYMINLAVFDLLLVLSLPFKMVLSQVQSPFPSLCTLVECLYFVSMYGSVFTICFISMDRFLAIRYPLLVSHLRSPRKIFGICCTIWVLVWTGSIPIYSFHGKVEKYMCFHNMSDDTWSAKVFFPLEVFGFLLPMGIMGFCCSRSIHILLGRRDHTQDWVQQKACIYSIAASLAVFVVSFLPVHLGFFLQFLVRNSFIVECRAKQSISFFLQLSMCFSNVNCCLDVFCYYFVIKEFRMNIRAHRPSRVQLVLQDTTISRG
T4 sequence (P21554 whole entry): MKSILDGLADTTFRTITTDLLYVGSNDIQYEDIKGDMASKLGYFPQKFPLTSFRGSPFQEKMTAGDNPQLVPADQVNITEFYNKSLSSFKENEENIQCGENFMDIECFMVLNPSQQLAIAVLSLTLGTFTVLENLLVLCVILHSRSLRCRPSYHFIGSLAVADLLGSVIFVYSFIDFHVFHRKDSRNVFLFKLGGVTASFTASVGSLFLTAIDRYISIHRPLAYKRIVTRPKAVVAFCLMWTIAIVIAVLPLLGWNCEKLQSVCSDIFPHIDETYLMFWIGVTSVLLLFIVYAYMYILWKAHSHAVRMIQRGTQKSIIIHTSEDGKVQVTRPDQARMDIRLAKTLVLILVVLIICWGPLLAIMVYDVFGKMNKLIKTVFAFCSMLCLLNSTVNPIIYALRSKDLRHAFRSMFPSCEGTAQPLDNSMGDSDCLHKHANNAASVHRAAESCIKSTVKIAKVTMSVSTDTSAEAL
T1 sequence (P98170 whole entry): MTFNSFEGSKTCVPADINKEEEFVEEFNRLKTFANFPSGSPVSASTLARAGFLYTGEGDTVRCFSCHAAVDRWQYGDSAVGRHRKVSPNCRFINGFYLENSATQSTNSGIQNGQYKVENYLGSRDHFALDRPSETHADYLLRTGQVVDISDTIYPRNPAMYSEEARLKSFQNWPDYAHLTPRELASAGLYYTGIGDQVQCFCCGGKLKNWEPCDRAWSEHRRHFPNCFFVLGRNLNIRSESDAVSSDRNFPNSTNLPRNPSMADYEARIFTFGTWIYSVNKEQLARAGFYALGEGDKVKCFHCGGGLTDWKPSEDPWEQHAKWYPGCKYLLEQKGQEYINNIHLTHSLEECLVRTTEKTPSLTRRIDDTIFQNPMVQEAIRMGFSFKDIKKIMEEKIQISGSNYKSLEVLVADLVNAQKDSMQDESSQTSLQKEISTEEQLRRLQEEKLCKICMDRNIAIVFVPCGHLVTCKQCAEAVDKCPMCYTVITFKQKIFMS
Chain of Nonstructural protein 1 (Q194T2 whole entry): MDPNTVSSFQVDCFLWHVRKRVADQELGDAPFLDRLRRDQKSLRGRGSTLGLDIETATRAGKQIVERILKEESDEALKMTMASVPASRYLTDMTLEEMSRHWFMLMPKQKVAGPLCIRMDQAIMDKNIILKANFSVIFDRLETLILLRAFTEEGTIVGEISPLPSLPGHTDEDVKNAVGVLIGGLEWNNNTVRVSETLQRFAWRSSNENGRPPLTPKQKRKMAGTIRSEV

As to `CCOCCCNC(=O)c1cn(CC(C)C)c(=O)c2cc(OC)c(OC)cc12`, the IC50 was > 100 µM (not active) in assay [1] and > 100 µM (inactive) in assay [2].
As to `CC1=CC(C)(C)N2C(=O)C3(SCC(=O)N3c3ccc(O)cc3)c3cc(C)cc1c32` (centres undefined), the IC50 in assay [3] is > 32 µM (inactive); at Cannabinoid receptor 2 [5] it was > 32 µM (inactive); at Cannabinoid receptor 1 [6] it was > 32 µM (inactive); in assay [7], 4.1 µM (active); in [10], 2.72 µM (active). For the same compound, the EC50 (in assay [4]; at Cannabinoid receptor 1 [8]; on Cannabinoid receptor 2 [9]) was > 32 µM (inactive) in each case.
On to `Cc1ccc(C(=O)n2nnc3ccccc32)cc1`, for which the half-maximal inhibitory concentration (IC50) on Coagulation factor XII [11] was 2.29 µM (active).
On to `CCCCC1(CC)C(=O)NC(=O)N=C1Nc1ccc(OC)cc1` (centres undefined), for which the IC50 on Coagulation factor XII [12] was > 50 µM (inactive).
Consider `CC1(C)Cc2c(sc(NC(=O)C(=O)NCC3CCCO3)c2C(N)=O)CO1` (centres undefined), for which the IC50 was 2.18 µM (active) in assay [13], > 20 µM (inactive) at Bcl-2-related protein A1 and 4.28 µM (active) in [14].
Regarding `Oc1ccc(/C=N/NC(=S)Nc2cccnc2)c(O)c1`, the results for the IC50 (on Nonstructural protein 1; in assay [15]; on Hexokinase HKDC1) were 1.82 µM (active), 40.5 µM (active) and > 80 µM (inactive), respectively. In addition, the EC50 at Hexokinase-1 is > 80 µM (inactive).
